Data on 1 compound can be found in publication PMC4322620 (Frontiers in Pharmacology, 2015).

One experiment concerns thermal pain. The settings on record: mouse, in vivo, ip, 4 mg/kg.
The test system of another experiment is acute thermal pain. The settings on record: mouse, in vivo, ip, 4 mg/kg.

Take `CC12CC3CC(C)(C1)CC(N)(C3)C2` [Memantine]: in the experiment with thermal pain, the “Hot plate (latency to hindlimb response)” value came to 7.9 ± 0.49 s. In the experiment with acute thermal pain, this compound came in with a Tail flick latency of 4.836 ± 0.264 s.
